experiment: recombinant barcode read abundance after kanamycin selection (control-corrected) (log10(CPM+1)); higher = more efficient recombination; sequences stand for … in AGTGCAGAGAAAATCGGCCAGTTTTCTCTGCCTGCAGTCCGCATGCCGT…ATTTATGCAGCGGACTGCCTTTCTCCCAAAGTGATAAACCGGACAGTATCATGGACCGGTTTTCCCGGTAATCCGTATTTGCAAGGTTGGTTTCACT; site = the 11-nt target
Outline: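 Recombination efficiency in this pooled E. coli screen uses counts per million of barcodes at recombinant junctions, averaged and corrected against the control. The reported form is log10(CPM+1). Two replicates were plated on chloramphenicol/ampicillin LB agar as control and two on chloramphenicol/ampicillin/kanamycin with 0.1 mM IPTG.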

Sequence	recombinant barcode read abundance (log10)
ACGGGACATTGGGTTCTAACCTGTTGCAGAG [ACGGGACCTCT_LTGcore_AT_RTGcore_CT] (site ACGGGACCTCT) (LTG core: AT, RTG core: CT)	0.0817
GGGCGTGCGTGGGTTCTAACCTGTTGCCTCG [GGGCGTGCTAG_LTGcore_CG_RTGcore_CG] (site GGGCGTGCTAG) (LTG core: CG, RTG core: CG)	0.0415
AGGCGGGGCTGGGTTCTAACCTGTTGCGGAG [AGGCGGGCTCC_LTGcore_GC_RTGcore_CT] (site AGGCGGGCTCC) (LTG core: GC, RTG core: CT)	0.207
TCGCGACGTTGGGTTCTAACCTGTTGCCGAC [TCGCGACCTCG_LTGcore_GT_RTGcore_GT] (site TCGCGACCTCG) (LTG core: GT, RTG core: GT)	0.0448
GGACACCCTTGGGTTCTAACCTGTTGCCTCA [GGACACCCTAG_LTGcore_CT_RTGcore_TG] (site GGACACCCTAG) (LTG core: CT, RTG core: TG)	0.858
TAGAGGGTGTGGGTTCTAACCTGTTGCGGAG [TAGAGGGCTCC_LTGcore_TG_RTGcore_CT] (site TAGAGGGCTCC) (LTG core: TG, RTG core: CT)	0.173
TGATACCCTTGGGTTCTAACCTGTTGCGTCT [TGATACCCTAC_LTGcore_CT_RTGcore_AG] (site TGATACCCTAC) (LTG core: CT, RTG core: AG)	0.133
AGGCCTCCCTGGGTTCTAACCTGTTGCCTGG [AGGCCTCCTAG_LTGcore_CC_RTGcore_CC] (site AGGCCTCCTAG) (LTG core: CC, RTG core: CC)	0.146
AAACATGCTTGGGTTCTAACCTGTTGCCTTA [AAACATGCTAG_LTGcore_CT_RTGcore_TA] (site AAACATGCTAG) (LTG core: CT, RTG core: TA)	0.485
GCGCGACACTGGGTTCTAACCTGTTGCTTAG [GCGCGACCTAA_LTGcore_AC_RTGcore_CT] (site GCGCGACCTAA) (LTG core: AC, RTG core: CT)	0.131
